PMC2943150 (Journal of medicinal chemistry, 2009)

Target: HIV-1 protease (Human immunodeficiency virus type 1 group M subtype B, UniProt P04585)
Assay: HIV-1 protease enzyme inhibition, assay protocol of Toth and Marshall
Type: biochemical

| SMILES | Ki |
| --- | --- |
| COc1ccc2c(c1)OCCCC/C=C\CN(C[C@@H](O)[C@H](Cc1ccccc1)NC(=O)O[C@H]1CO[C@H]3OCC[C@H]31)S2(=O)=O [Inhibitor 14e] | 0.017 ± 0.001 nM |
| COc1ccc2c(c1)OCCCCCCCN(C[C@@H](O)[C@H](Cc1ccccc1)NC(=O)O[C@H]1CO[C@H]3OCC[C@H]31)S2(=O)=O [Inhibitor 15d] | 0.08 ± 0.02 nM |
